# Data as given in patent US20140178433A1, “[…] INCREASED ANTIGENIC MASS” (priority 2012, published 2014).
# Tests used:
# [1] = test system: Leptospira of serogroup Icterohaemorrhagiae; assay: Antigenic mass of fermenter culture by antigen Elisa, serogroup Icterohaemorrhagiae; assay type: cell-based, L. interrogans (sensu lato); conditions: for Ag U/10^9 cells/ml, at 3 days: different BSA ingredients in EMJH medium, no supplementation; for antigenic mass: average of days 3-5; for Ag. mass, average of days 3-5, Ag U/10^9 cells/ml: EMJH with standard BSA; for Ag. mass, average of days 4-5, Ag U/10^9 cells/ml: standard BSA, total 105 μg/ml; for relative Ag. mass (%), average of days 4-5: relative to non-supplemented = 100
# Method: (§1) During all fermentation experiments the temperature was controlled at about 29° C. The medium was aerated with headspace airflow, and the dissolved oxygen (pO2) concentration was controlled by automatic variation of the agitation-rate, to maintain a set pO2 concentration. Temperature, pH and pO2 concentration were monitored online, but pH and foam formation were not controlled.
# (§2) Supplementation was done either with pure linoleic acid (Sigma Aldrich, >99% pure) as a 10% v/v stock in absolute ethanol (JT Baker). Alternatively, linoleic acid was supplemented by using a BSA that was created with a high level of linoleic acid (high LA BSA). This high LA BSA was used either to replace a standard BSA in EMJH medium, or was used in addition to BSA in the EMJH medium, in which case it was added as a 25% w/v stock solution in sterile water. The high LA BSA or the pure linoleic acid/ethanol supplements were fed to a fermentor over the course of 4 hours, at 0.1-0.2 ml/hour, until the fermentor culture had received a desired total amount of linoleic acid. Different total available levels of linoleic acid have been tested, of between about 5 and 425 μg/ml in the total volume. The fermenter cultures of Leptospira were supplemented at different cell-densities i.e. at early-, mid- or end phase culture. Typical mid-phase cell density was at about 5×10̂8 cells/ml, which was reached during day 2 of the main incubation. Upon supplementation with linoleic acid from the pure linoleic acid in ethanol stock, sometimes a small decrease in pH was noted, which was corrected by applying some NaOH.
# (§3) 2004. Royal Tropical Institute, Amsterdam.
# An arbitrary number of antigen units is affixed to the sample, for example: 1000 Units/ml.
# [2] = test system: Leptospira from serogroup Grippotyphosa; assay: Antigenic mass of fermenter culture by antigen Elisa, serogroup Grippotyphosa; assay type: cell-based, L. interrogans (sensu lato); conditions: for Antigenic mass, 2 day average, Ag U/10^9 cells/ml: average of days 4 and 5
# Method: as §2, §3
# (§4) In a next study it was confirmed that the increase in antigenic mass upon supplementation with linoleic acid is a general phenomenon in Leptospira. In several experiments cultures of Leptospira strains from several serogroups were proliferated in fermenters in similar set-ups as before and with a similar supplementation: in EMJH medium with either standard BSA or with high LA BSA; some cultures were further supplemented with 100 μg/ml linoleic acid, from pure linoleic acid in ethanol. Results of analyses of biomass and antigen amount are presented in FIGS. 6-7 (Sejroe), and 8-9 (Grippotyphosa), and are summarised in Table 5.
# For serogroup Grippotyphosa the scores were averaged over days 4 and 5 of the culture.
# [3] = test system: Leptospira from serogroup Sejroe (serovar Hardjo); assay: Antigenic mass of fermenter culture by antigen Elisa, serogroup Sejroe; assay type: cell-based, L. interrogans (sensu lato); conditions: for Antigenic mass, 2 day average, Ag U/10^9 cells/ml: average of days 5 and 6
# Method: as §2, §3, §4
# Some increase in biomass was observed after supplementation, but the increase in antigen amount was much higher. The fermenter was run for 6 days, and scores for these experiments were averaged over days 5 and 6 of the culture.
# [4] = test system: Leptospira from serogroup Australis (serovar Bratislava); assay: Antigenic mass of fermenter culture by antigen Elisa, serogroup Australis; assay type: cell-based, L. interrogans (sensu lato)
# Method: as §2, §3, §4
# Similarly, for serogroup Australis (serovar Bratislava), an increase in antigenic mass with 45% was observed; here the low LA BSA medium was used for supplementation.
# [5] = test system: Leptospira of serogroup Icterohaemorrhagiae; assay: Biomass (total cell count, Petroff-Hausser counting chamber) of fermenter culture, serogroup Icterohaemorrhagiae; assay type: cell-based, L. interrogans (sensu lato)
# Method: as §1
# as §2, with “Typical mid-phase cell density was at about 5×10̂8 cells/ml, which was reached during day 2 of the main incubation. Upon supplementation with linoleic acid from the pure linoleic acid in ethanol stock, sometimes a small decrease in pH was noted, which was corrected by applying some NaOH.” left out
# Leptospira culture = assay: Linoleic acid supplementation of a Leptospira culture, serogroup not stated; assay type: cell-based
# Method: as §2
# [6] = EMJH with high LA BSA, C18:2 total 25 μg/ml
# [7] = EMJH with high LA BSA, C18:2 total 25 μg/ml, serves as reference = 100
# [8] = 100 μg/ml added, total 125 μg/ml, relative to high LA BSA culture = 100
# [9] = 100 μg/ml pure linoleic acid in ethanol added to high LA BSA medium, C18:2 total 125 μg/ml
compound,measurement,setting,value
"BSA, BovoStar ®: a standard all-purpose BSA from the same manufacturer (Bovogen)","Ag U/10^9 cells/ml, at 3 days",[1],533 Ag U/10^9 cells/ml
"BSA, Millipore: a standard commercial BSA (Millipore)","Ag U/10^9 cells/ml, at 3 days",[1],525 Ag U/10^9 cells/ml
high LA BSA: BSA that was created with a high level of linoleic acid,"Antigenic mass, 2 day average, Ag U/10^9 cells/ml",[2]; [6],5074 Ag U/10^9 cells/ml
same,relative Ag. mass (%),[2]; [7],100%
same,increase of antigenic mass,[1]; 25 instead of 5 μg/ml linoleic acid available,124%
same,antigenic mass,"[1]; high LA BSA at 1% w/v in EMJH, 25 μg/ml linoleic acid available",1636 Ag U/1×10̂9 cells
same,"Ag. mass, average of days 3-5, Ag U/10^9 cells/ml","[1]; supplemented 50 μg/ml linoleic acid as high LA BSA solution, C18:2 total 55 μg/ml",1612 Ag U/10^9 cells/ml
same,"relative Ag. mass (%), average of days 3-5","[1]; supplemented 50 μg/ml linoleic acid as high LA BSA, C18:2 total 55 μg/ml, relative to non-supplemented culture = 100",221%
same,"Antigenic mass, 2 day average, Ag U/10^9 cells/ml",[3]; [6],287 Ag U/10^9 cells/ml
same,relative Ag. mass (%),[3]; [7],100%
"CCCCCC=CCC=CCCCCCCCC(=O)O [linoleic acid, 9,12-octadecadienoic acid]",relative Ag. mass (%),[2]; [8],163%
same,"Antigenic mass, 2 day average, Ag U/10^9 cells/ml",[2]; [9],8286 Ag U/10^9 cells/ml
same,increase of the antigenic mass,[2]; supplementation with linoleic acid (100 μg/ml) of high LA BSA medium,63%
same,relative Ag. mass (%),"[4]; 100 μg/ml added, total 105 μg/ml, relative to non-supplemented culture = 100",145%
same,"Antigenic mass, 2 day average, Ag U/10^9 cells/ml","[4]; 100 μg/ml pure linoleic acid added to low LA BSA medium, C18:2 total 105 μg/ml",12822 Ag U/10^9 cells/ml
same,increase of the antigenic mass,[4]; supplementation of low LA BSA medium,45%
same,toxicity for the bacteria (cell numbers decreased rapidly after supplementation),"[5]; 400 μg/ml pure linoleic acid in ethanol, EMJH with high LA BSA",induced toxicity
same,increase of the antigenic mass,Leptospira culture; 25 μg linoleic acid available per ml of culture compared to about 5 μg/ml,significant increase of the antigenic mass
same,toxicity,"Leptospira culture; highest availability level tested, 425 μg/ml, preparation of pure linoleic acid",some toxicity was noticeable for some serovars
same,antigenic mass,"[1]; 100 μg/ml pure linoleic acid in ethanol added on day 2 (mid-exponential), EMJH with high LA BSA",1767 Ag. U/1×10̂9 cells
same,"Ag. mass, average of days 4-5, Ag U/10^9 cells/ml",[1]; 100 μg/ml pure linoleic acid in ethanol supplemented at 1 × 10^8 cells/ml (early phase),1783 Ag U/10^9 cells/ml
same,"Ag. mass, average of days 4-5, Ag U/10^9 cells/ml",[1]; 100 μg/ml pure linoleic acid in ethanol supplemented at 5 × 10^8 cells/ml (mid phase),1564 Ag U/10^9 cells/ml
same,"Ag. mass, average of days 4-5, Ag U/10^9 cells/ml",[1]; 100 μg/ml pure linoleic acid in ethanol supplemented at 9 × 10^8 cells/ml (late phase),1656 Ag U/10^9 cells/ml
same,increase in antigenic mass after supplementation at different phases,"[1]; 100 μg/ml, early-, mid-, late exponential phase, sampling at 2, 4 and 8 hours after the suppletion",acute increase in antigenic mass can be induced at all phases of the Leptospira culture
same,increase of the antigenic mass,"[1]; 200 μg/ml pure linoleic acid in ethanol, EMJH with high LA BSA",slightly less increase of the antigenic mass compared to that of the 100 μg/ml group
same,increase of the antigenic mass,[1]; exemplary increase following application of the method (linoleic acid supplementation),121%
same,"Ag. mass, average of days 3-5, Ag U/10^9 cells/ml","[1]; supplemented 75 μg/ml in mid-exponential phase, C18:2 total 80 μg/ml",1450 Ag U/10^9 cells/ml
same,"relative Ag. mass (%), average of days 3-5","[1]; supplemented 75 μg/ml, C18:2 total 80 μg/ml, relative to non-supplemented culture with standard BSA = 100",199%
same,"Ag. mass, average of days 3-5, Ag U/10^9 cells/ml","[1]; supplemented 150 μg/ml in mid-exponential phase, C18:2 total 155 μg/ml",1550 Ag U/10^9 cells/ml
same,"relative Ag. mass (%), average of days 3-5","[1]; supplemented 150 μg/ml, C18:2 total 155 μg/ml, relative to non-supplemented culture with standard BSA = 100",213%
same,"relative Ag. mass (%), average of days 4-5","[1]; supplemented at 1 × 10^8 cells/ml, 100 μg/ml",226%
same,"relative Ag. mass (%), average of days 4-5","[1]; supplemented at 5 × 10^8 cells/ml, 100 μg/ml",198%
same,"relative Ag. mass (%), average of days 4-5","[1]; supplemented at 9 × 10^8 cells/ml, 100 μg/ml",210%
same,relative Ag. mass (%),[3]; [8],284%
same,"Antigenic mass, 2 day average, Ag U/10^9 cells/ml",[3]; [9],814 Ag U/10^9 cells/ml
same,increase of the antigenic mass,[3]; supplementation with 100 μg/ml linoleic acid of high LA BSA culture medium,184%
"BSA, BovoLep ®: BSA (Bovogen, Australia) recommended for Leptospira culture; standard BSA enriched with a number of vegetable fatty acids",effect on biomass of Leptospira,[5]; BSA ingredient in EMJH medium,did increase the biomass
same,effect on antigenic mass,[1]; BSA ingredient in EMJH medium,no significant effect
same,"Ag U/10^9 cells/ml, at 3 days",[1],498 Ag U/10^9 cells/ml
